Results as given in ChEMBL document CHEMBL4414548 (J Med Chem, 2019).
Active and inactive are the calls of the source. No cut-off for these calls is given here.

Assays:
[1] = target: T1, Inhibitor of nuclear factor kappa-B kinase subunit beta (Homo sapiens) (UniProt O14920); assay: Inhibition of IKKbeta (unknown origin)
T1 sequence (whole entry): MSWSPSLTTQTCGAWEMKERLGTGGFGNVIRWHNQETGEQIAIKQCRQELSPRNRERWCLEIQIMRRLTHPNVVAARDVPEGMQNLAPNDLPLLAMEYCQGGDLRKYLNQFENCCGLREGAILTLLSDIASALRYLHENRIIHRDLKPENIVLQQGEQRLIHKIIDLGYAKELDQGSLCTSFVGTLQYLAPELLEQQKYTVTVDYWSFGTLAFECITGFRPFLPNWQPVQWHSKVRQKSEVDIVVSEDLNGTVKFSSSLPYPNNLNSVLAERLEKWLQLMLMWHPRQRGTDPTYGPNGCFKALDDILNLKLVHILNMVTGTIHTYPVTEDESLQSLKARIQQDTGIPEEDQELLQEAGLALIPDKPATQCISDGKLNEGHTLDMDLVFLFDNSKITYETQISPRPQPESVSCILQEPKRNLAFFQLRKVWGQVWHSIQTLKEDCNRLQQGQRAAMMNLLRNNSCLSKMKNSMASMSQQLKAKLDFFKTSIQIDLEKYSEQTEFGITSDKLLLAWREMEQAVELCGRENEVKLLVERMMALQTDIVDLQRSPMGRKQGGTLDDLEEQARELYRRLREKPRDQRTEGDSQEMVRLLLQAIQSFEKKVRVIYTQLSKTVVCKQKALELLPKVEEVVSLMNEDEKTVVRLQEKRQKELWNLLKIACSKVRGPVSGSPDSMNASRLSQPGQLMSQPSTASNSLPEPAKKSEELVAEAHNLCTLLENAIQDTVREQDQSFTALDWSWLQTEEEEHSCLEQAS

[2] = target: Tyrosine-protein kinase JAK1 (Homo sapiens, UniProt P23458); assay: Inhibition of JAK1 JH1 domain (unknown origin)
Chain of Tyrosine-protein kinase JAK1 (P23458 whole entry, the tested form may be a part): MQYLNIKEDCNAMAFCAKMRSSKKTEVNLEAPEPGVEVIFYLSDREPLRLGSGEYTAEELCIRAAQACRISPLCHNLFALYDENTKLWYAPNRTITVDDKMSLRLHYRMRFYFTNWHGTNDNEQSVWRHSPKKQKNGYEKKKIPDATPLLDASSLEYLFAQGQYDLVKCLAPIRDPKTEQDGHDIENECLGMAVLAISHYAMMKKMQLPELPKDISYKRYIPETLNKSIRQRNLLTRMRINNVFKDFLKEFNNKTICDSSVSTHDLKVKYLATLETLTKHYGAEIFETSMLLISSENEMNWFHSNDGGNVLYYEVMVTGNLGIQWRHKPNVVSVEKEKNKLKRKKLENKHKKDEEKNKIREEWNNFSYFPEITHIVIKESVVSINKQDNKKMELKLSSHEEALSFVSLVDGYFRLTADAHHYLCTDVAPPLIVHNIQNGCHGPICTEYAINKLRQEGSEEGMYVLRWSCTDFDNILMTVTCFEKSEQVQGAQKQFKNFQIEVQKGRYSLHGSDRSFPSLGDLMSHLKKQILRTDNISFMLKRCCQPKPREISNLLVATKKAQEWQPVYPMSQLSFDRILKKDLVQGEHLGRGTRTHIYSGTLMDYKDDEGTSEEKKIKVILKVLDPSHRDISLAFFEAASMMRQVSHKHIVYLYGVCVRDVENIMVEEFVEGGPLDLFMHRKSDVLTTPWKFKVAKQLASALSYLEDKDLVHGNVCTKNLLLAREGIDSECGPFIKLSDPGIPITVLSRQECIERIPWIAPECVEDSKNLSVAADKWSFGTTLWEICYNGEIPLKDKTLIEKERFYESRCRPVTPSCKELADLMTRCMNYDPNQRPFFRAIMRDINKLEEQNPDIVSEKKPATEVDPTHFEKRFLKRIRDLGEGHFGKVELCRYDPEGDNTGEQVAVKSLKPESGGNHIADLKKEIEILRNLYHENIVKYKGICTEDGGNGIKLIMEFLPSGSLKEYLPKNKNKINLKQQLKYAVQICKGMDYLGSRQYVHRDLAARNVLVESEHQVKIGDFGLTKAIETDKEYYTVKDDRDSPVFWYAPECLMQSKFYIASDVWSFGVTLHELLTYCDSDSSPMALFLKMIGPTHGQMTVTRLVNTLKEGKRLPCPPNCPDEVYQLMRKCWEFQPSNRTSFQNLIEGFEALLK

[3] = target: T2, Non-receptor tyrosine-protein kinase TYK2 (Homo sapiens, UniProt P29597); assay: Inhibition of TYK2 JH1 domain (unknown origin)
T2 sequence (P29597 whole entry, the tested form may be a part): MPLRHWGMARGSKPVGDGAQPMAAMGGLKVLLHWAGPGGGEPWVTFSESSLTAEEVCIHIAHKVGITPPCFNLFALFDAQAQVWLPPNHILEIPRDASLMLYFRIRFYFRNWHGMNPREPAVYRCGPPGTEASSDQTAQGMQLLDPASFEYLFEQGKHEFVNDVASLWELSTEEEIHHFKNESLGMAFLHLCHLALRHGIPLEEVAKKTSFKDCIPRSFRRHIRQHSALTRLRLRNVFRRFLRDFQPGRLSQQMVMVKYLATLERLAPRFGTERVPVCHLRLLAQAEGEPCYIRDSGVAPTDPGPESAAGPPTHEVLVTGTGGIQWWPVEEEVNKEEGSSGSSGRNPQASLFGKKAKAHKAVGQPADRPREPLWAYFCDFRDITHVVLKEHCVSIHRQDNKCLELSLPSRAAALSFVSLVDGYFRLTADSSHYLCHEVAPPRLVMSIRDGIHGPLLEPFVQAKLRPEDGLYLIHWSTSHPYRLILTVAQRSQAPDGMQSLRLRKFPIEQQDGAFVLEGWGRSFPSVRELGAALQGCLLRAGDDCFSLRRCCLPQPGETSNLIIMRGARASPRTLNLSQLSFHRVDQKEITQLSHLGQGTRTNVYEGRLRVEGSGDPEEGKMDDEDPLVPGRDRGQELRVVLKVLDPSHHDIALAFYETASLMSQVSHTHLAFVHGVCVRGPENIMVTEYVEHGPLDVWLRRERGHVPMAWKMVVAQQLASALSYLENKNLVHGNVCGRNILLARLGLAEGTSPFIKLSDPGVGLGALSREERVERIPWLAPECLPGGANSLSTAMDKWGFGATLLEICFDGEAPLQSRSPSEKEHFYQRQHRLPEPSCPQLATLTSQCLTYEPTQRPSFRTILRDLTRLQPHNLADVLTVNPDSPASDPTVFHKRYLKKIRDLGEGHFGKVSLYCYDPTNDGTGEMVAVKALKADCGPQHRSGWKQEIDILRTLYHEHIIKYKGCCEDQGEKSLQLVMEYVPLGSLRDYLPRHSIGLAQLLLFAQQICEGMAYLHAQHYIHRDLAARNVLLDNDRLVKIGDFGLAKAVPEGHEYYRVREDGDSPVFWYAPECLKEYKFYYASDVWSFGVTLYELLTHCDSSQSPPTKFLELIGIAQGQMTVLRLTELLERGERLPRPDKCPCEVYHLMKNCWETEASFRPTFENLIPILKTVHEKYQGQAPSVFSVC

[4] = Metabolic stability in pooled human liver microsomes at 0.5 uM after 10 mins by UV based analysis; format: ADME, Microsome; conditions: read-out: Stability
[5] = target: T2, Non-receptor tyrosine-protein kinase TYK2; assay: Inhibition of fluorescein-labeled kinase tracer binding to His-TVMV-fused TYK2 JH2 domain (575 to 869 residues) (unknown origin) measured after 90 mins by HTRF assay
JAK1/TYK2 = JAK1/TYK2 (Homo sapiens, UniProt P23458+P29597); assay: Inhibition of TYK2/JAK1 in IFNalpha-stimulated human Kit225 cells by steady-glo luciferase assay
Chain of JAK1/TYK2 (P23458 whole entry): as the sequence (P23458 whole entry, the tested form may be a part) above
Chain of JAK1/TYK2 (P29597 whole entry): as the sequence (P29597 whole entry, the tested form may be a part) above

[6] = Metabolic stability in pooled mouse liver microsomes at 0.5 uM after 10 mins by UV based analysis; format: ADME, Microsome; conditions: read-out: Stability
JAK3/JAK1 = JAK3/JAK1 (Homo sapiens, UniProt P23458+P52333); assay: Inhibition of JAK1/JAK3 (unknown origin) in IL-2 stimulated cells by cell based assay
Chain of JAK3/JAK1 (P52333 whole entry): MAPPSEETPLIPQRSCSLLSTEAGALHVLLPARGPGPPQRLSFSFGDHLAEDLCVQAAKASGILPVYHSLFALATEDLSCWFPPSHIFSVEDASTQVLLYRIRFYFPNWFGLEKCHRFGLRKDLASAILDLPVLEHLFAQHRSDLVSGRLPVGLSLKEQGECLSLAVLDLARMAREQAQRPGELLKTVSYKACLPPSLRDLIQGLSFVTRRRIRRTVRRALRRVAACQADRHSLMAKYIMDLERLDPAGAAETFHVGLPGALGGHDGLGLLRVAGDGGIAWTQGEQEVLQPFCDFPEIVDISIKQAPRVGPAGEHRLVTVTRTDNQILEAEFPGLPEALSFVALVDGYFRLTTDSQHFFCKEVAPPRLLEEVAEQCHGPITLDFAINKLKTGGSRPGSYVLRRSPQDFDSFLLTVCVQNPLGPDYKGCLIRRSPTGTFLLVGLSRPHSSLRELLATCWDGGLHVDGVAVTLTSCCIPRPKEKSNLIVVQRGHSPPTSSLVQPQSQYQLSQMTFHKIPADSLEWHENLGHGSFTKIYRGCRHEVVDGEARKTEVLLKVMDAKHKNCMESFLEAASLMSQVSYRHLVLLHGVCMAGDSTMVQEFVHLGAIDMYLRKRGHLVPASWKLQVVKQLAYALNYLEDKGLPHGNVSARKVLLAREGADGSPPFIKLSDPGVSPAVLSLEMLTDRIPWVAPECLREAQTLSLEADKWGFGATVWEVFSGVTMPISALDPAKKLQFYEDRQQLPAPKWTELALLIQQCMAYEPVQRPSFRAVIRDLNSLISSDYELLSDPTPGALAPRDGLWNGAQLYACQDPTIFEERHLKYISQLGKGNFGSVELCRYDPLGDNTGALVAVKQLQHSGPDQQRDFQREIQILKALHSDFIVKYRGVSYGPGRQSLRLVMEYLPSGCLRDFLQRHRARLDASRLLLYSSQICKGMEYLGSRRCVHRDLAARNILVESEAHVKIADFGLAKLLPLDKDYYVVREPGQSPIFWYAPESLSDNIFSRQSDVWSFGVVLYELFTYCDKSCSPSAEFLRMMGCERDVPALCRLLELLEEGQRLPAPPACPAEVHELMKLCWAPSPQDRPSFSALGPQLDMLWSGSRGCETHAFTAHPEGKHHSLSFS
Chain of JAK3/JAK1 (P23458 whole entry): as the sequence (P23458 whole entry, the tested form may be a part) above

[7] = target: T2, Non-receptor tyrosine-protein kinase TYK2; assay: Inhibition of TYK2 JH2 (unknown origin) by Scintillation proximity assay
[8] = target: Tyrosine-protein kinase JAK2 (Homo sapiens, UniProt O60674); assay: Inhibition of JAK2 JH1 domain (unknown origin)
Chain of Tyrosine-protein kinase JAK2 (O60674 whole entry, the tested form may be a part): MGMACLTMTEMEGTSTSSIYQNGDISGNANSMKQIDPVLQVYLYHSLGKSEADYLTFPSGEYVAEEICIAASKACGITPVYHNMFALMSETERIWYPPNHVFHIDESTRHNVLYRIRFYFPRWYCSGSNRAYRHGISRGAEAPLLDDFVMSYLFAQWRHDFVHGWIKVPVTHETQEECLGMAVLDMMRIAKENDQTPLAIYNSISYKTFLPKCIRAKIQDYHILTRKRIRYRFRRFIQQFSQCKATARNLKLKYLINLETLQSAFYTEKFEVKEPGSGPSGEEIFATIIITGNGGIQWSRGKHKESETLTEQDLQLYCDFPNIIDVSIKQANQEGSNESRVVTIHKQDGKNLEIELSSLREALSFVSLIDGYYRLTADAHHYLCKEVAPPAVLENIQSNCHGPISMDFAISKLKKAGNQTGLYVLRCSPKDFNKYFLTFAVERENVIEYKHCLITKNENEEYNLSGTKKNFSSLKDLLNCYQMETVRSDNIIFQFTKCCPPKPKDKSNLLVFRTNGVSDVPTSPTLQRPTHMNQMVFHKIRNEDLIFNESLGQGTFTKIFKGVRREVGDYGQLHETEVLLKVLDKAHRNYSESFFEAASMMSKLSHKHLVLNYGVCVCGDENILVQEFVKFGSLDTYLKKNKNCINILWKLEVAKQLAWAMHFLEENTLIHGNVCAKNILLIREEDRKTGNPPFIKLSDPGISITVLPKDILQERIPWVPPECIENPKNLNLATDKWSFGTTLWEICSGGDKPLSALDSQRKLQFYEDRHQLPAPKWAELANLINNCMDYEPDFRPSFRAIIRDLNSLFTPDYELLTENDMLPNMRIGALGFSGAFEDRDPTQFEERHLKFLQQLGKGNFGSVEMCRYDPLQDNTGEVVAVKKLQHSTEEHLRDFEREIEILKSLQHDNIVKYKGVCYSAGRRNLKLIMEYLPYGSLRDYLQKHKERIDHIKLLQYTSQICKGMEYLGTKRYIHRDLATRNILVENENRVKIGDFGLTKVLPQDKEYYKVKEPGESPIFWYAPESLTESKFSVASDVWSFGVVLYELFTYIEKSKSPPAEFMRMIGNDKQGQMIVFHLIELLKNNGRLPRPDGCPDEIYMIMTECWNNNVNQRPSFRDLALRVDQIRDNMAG

[9] = target: T2, Non-receptor tyrosine-protein kinase TYK2; assay: Inhibition of TYK2 JH2 (unknown origin) by morrison titration assay; conditions: read-out: Ki(app)
JAK2/TYK2 = JAK2/TYK2 (Homo sapiens, UniProt O60674+P29597); assay: Inhibition of TYK2/JAK2 in IL23-stimulated human Kit225 cells by steady-glo luciferase assay
Chain of JAK2/TYK2 (O60674 whole entry): as the sequence (O60674 whole entry, the tested form may be a part) above
Chain of JAK2/TYK2 (P29597 whole entry): as the sequence (P29597 whole entry, the tested form may be a part) above

JAK2/JAK1 = JAK2/JAK1 (Homo sapiens, UniProt O60674+P23458); assay: Inhibition of JAK1/JAK2 (unknown origin) in GM-CSF stimulated cells by cell based assay
Chain of JAK2/JAK1 (P23458 whole entry): as the sequence (P23458 whole entry, the tested form may be a part) above
Chain of JAK2/JAK1 (O60674 whole entry): as the sequence (O60674 whole entry, the tested form may be a part) above

NC(=O)c1ccccc1Nc1cc(Nc2ccc(F)cn2)ncc1C(N)=O
inhibition [1]: inactive | IC50 [2]: 26 nM | IC50 [3]: 15 nM | remaining at 10 min, 0.5 µM [4]: > 80% | IC50 [5]: 0.46 nM | IC50 (JAK1/TYK2): 37 nM | remaining at 10 min, 0.5 µM [6]: > 80% | IC50 (JAK3/JAK1): 400 nM | EC50 [7]: 6.6 nM | IC50 [8]: 24 nM | Ki [9]: 0.06 nM | IC50 (JAK2/TYK2): 89 nM | IC50 (JAK2/JAK1): 210 nM
